Data reported in patent US8106067B2, “Indolizine derivatives and the use thereof as antidiabetics” (Merck Patent GmbH, priority 2006, dated 2012).

What was measured:
[1] = target: T1, SGLT2 (Homo sapiens, UniProt P31639); assay: 14C-AMG uptake in BHK cells transfected with SGLT2 (96-well cell-based assay); settings: 2 mM AMG, 37° C., 90 min
T1 construct: expressed in transfected cells
T1 sequence (P31639 1-672): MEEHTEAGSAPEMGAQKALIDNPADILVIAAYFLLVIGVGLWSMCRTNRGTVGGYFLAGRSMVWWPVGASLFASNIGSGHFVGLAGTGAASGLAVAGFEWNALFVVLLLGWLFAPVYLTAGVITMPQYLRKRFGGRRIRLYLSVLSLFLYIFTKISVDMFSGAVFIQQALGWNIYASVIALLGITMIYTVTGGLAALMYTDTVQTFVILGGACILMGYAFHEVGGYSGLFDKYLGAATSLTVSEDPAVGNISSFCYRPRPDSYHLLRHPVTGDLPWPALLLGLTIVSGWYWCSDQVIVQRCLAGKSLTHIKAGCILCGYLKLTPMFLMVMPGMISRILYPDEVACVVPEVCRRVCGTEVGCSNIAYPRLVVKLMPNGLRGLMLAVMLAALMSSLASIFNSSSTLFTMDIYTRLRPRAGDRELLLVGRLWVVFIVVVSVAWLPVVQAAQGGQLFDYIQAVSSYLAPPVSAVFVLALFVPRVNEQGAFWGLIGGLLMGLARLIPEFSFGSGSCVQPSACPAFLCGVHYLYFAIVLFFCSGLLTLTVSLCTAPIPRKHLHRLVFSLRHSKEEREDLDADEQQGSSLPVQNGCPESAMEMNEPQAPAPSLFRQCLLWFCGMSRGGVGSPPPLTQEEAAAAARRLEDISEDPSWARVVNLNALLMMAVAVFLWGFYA
Source text: (§1) The compounds can be tested for their SGLT inhibition properties by means of BHK cells expressing SGLT1 and SGLT2. The production of the cells and the testing can be carried out as described below.
To construct the SGLT2 expression vector (KL224), the SLC5A2 gene (homologous to NM_003041) was amplified from a cDNA library using standard PCR technology and cloned over NheI/XhoI sites into PCI-neo expression vector (Promega) containing neomycin as a selection marker. In this vector, transcription uses the enhancer/promoter of human cytomegalovirus and the SV40 polyadenylation signal.
(§2) The final vector KL224 together with an additional vector containing a dihydrofolate reductase gene as a selection marker was introduced into cells. […] After growth for 2-3 weeks, the cells were cloned (0.5 cells/well) and the clones were investigated for SGLT expression in radioactivity uptake tests. […]
(§3) BHK cells (transfected with SGLT1 or SGLT2) were seeded into 96-well microtitre plates (Cultureplates, Perkin Elmer). […] The radioactivity was counted in a Topcount microplate scintillation counter (Perkin Elmer). The non-specific uptake was determined in sodium-free assay buffer (266 mM sucrose, 2 mM KCl, 1 mM CaCl2, 1 mM MgCl2, 10 mM HEPES, 5 mM Tris, adjusted to pH 7.4 using 1 M KOH).

[2] = target: T2, SGLT1 (Homo sapiens, UniProt P13866); assay: 14C-AMG uptake in BHK cells transfected with SGLT1 (96-well cell-based assay); settings: 50 μM AMG, 37° C., 90 min
T2 construct: expressed in transfected cells
T2 sequence (P13866 1-664): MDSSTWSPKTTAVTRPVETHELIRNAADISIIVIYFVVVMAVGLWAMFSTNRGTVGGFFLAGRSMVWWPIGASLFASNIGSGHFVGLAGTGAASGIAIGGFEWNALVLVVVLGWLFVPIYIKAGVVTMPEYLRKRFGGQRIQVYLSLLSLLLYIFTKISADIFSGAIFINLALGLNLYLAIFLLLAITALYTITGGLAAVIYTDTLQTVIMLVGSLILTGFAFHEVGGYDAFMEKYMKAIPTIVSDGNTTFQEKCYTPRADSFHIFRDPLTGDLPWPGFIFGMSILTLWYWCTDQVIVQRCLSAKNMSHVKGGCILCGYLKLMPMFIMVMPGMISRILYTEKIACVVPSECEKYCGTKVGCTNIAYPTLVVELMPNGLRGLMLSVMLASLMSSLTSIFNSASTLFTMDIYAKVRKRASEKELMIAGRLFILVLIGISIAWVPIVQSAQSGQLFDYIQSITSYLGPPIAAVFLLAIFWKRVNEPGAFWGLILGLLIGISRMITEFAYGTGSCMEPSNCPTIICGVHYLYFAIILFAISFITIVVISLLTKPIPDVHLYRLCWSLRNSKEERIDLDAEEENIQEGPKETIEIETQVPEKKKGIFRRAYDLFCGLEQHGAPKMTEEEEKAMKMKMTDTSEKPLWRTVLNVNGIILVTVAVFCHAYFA
Source text: as §1
To construct the SGLT1 expression vector (KL225), the SLC5A1 gene (homologous to NM-000343) was amplified from a cDNA library using standard PCR technology and cloned over NheI/XhoI sites into the pcDNA3.1 expression vector (Invitrogen) containing neomycin as a selection marker. In this vector, transcription uses the enhancer/promoter of human cytomegalovirus.
as §2, with “KL225” for “KL224”
as §3

## COc1cccc(OCC(N)=O)c1-c1c(C#N)c2ccccn2c1Nc1c(C)cccc1C [Compound A1, 2-{2-[1-cyano-3-(2,6-dimethylphenylamino)indolizin-2-yl]-3-methoxyphenoxy}acetamide]
[1]
  IC50: 0.01 to 1 µM
[2]
  IC50: 1 to 10 µM

## Cc1cccc(C)c1Nc1c(-c2ccccc2OCC(N)=O)c(C#N)c2ccccn12 [Compound A2, 2-{2-[1-Cyano-3-(2,6-dimethylphenylamino)indolizin-2-yl]phenoxy}acetamide]
[1]
  IC50: 0.01 to 1 µM
[2]
  IC50: 1 to 10 µM
